From ChEMBL document CHEMBL1201862, “PubChem BioAssay data set” (2004)
Activity calls are given as the source filed them.

How the values were obtained:
[1] = NIH-3T3 fibroblast cytotoxicity, dose response, cytotoxicity control, cell-based, fluorescence, Alamar Blue, secondary assay (AID 2327); assay type: functional;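 note: NIH-3T3 mouse fibroblasts cultured with fluconazole at 8 µg/mL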
[2] = fluconazole-exposed Candida albicans growth modulators – fluorescence, retest, confirmation (AID 2467); assay type: functional, cell-based
[3] = target: 1-phosphatidylinositol 4,5-bisphosphate phosphodiesterase gamma-1 (Homo sapiens, UniProt P19174); experiment: Counterscreen for inhibitors of phospholipase C isozymes (PLC-B3): Fluorescence-based biochemical high throughput dose response assay to identify inhibitors of phospholipase C isozymes (PLC-gamma1).
[4] = target: Phospholipase A2 (Homo sapiens, UniProt P04054); assay type: functional;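 note: confirmatory dose-response counterscreen on phospholipase A2, testing hits that came from an ultra-high-throughput screen for ATG4B inhibitors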
[5] = target: T1, Long-chain-fatty-acid--AMP ligase FadD28 (Mycobacterium tuberculosis, UniProt P9WQ59); experiment: Fluorescence polarization aasay to screen for inhibitors that compete for the binding of FadD28 to a bisubstrate Measured in Biochemical System Using Plate Reader - 2147-01_Inhibitor_Dose_CherryPick_Activity.; assay type: functional, Mycobacterium tuberculosis H37Rv
T1 sequence (P9WQ59 whole entry): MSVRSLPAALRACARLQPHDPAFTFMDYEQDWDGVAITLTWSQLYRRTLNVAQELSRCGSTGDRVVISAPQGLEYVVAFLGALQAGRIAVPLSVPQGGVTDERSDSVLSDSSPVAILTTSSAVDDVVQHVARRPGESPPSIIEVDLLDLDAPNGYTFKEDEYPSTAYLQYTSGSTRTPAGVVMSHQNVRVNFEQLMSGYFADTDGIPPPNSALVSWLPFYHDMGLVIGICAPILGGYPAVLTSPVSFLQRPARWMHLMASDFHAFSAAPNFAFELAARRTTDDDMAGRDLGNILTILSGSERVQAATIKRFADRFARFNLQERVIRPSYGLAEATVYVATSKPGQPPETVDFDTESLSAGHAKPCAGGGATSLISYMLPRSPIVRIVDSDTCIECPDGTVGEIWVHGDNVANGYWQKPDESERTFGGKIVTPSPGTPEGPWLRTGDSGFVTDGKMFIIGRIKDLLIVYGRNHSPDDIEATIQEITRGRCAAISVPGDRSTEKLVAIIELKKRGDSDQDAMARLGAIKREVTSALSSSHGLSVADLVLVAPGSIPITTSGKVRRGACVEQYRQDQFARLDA

[6] = target: Genome polyprotein (dengue virus type 2, UniProt P29990); experiment: flavivirus cap methylation enzyme inhibition – biochemical, confirmation dose response, primary screen (AID 588689); assay type: functional
[7] = target: RAC-gamma serine/threonine-protein kinase (Homo sapiens, UniProt Q9Y243); assay type: functional
[8] = target: Serine/threonine-protein kinase pim-2 (Homo sapiens, UniProt Q9P1W9); assay type: functional;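 note: value comes from a broad kinase panel profiling study in which PIM2 was one of the panel members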
[9] = target: MAP kinase-activated protein kinase 2 (Homo sapiens, UniProt P49137); assay type: functional;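 note: measured as one member of a kinome-wide kinase panel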
[10] = target: Protein kinase C delta type (Homo sapiens, UniProt Q05655); assay type: functional
[11] = target: Fibroblast growth factor receptor 3 (Homo sapiens, UniProt P22607); assay type: functional
[12] = target: Tyrosine-protein kinase Blk (Homo sapiens, UniProt P51451); assay type: functional;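 note: obtained as one member of a kinome-wide kinase assay panel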
[13] = target: Inhibitor of nuclear factor kappa-B kinase subunit beta (Homo sapiens, UniProt O14920); assay type: functional
[14] = target: 3-phosphoinositide-dependent protein kinase 1 (Homo sapiens, UniProt O15530); assay type: functional;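 note: value comes from the Navigating the Kinome panel, PDPK1 member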
[15] = target: Mast/stem cell growth factor receptor Kit (Homo sapiens, UniProt P10721); assay type: functional;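 note: KIT entry within a kinase panel assay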
[16] = target: Serine/threonine-protein kinase TBK1 (Homo sapiens, UniProt Q9UHD2); experiment: Navigating the Kinome. Panel member name: TBK1; assay type: functional
[17] = target: Platelet-derived growth factor receptor beta (Homo sapiens, UniProt P09619); assay type: functional;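 note: value comes from a kinome panel, with PDGFRB tested as one panel member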
[18] = target: Protein kinase C theta type (Homo sapiens, UniProt Q04759); experiment: Navigating the Kinome. Panel member name: PRKCQ; assay type: functional
[19] = target: Dual specificity tyrosine-phosphorylation-regulated kinase 1B (Homo sapiens, UniProt Q9Y463); experiment: Navigating the Kinome. Panel member name: DYRK1B; assay type: functional
[20] = target: Leukocyte tyrosine kinase receptor (Homo sapiens, UniProt P29376); experiment: Navigating the Kinome. Panel member name: LTK; assay type: functional
[21] = target: Cyclin-dependent kinase 9 (Homo sapiens, UniProt P50750); assay type: functional;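 note: value from the CDK9 entry of a kinome-spanning kinase panel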

Sequence of 3-phosphoinositide-dependent protein kinase 1 (O15530 whole entry): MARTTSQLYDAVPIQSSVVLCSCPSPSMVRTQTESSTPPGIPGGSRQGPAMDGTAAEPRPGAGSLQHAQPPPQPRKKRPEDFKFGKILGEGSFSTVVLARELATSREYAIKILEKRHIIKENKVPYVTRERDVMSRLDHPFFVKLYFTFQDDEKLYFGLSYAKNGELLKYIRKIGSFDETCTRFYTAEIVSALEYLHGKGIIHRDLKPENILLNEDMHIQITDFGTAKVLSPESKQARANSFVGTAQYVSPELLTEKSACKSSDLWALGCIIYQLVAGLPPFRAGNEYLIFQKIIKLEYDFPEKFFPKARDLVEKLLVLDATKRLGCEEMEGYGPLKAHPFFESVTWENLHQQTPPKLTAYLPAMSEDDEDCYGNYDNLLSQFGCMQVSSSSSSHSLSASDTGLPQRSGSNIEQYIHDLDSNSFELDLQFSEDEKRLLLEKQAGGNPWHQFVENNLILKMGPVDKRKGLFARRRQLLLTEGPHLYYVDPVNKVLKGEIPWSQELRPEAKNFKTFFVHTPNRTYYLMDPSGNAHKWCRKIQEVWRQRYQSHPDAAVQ
Sequence of RAC-gamma serine/threonine-protein kinase (Q9Y243 whole entry): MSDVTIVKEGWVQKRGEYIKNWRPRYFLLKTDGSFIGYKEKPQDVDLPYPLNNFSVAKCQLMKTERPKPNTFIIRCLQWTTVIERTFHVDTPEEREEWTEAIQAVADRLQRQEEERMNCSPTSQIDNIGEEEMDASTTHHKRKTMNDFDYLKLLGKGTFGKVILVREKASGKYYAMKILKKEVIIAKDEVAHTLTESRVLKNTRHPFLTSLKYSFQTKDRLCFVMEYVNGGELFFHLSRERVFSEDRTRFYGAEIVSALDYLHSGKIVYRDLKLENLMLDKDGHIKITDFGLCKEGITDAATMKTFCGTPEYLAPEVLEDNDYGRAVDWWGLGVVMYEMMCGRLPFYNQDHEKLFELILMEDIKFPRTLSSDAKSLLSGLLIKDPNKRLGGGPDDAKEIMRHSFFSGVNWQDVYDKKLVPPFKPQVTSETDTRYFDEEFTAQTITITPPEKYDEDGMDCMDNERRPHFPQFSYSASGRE
Sequence of MAP kinase-activated protein kinase 2 (P49137 whole entry): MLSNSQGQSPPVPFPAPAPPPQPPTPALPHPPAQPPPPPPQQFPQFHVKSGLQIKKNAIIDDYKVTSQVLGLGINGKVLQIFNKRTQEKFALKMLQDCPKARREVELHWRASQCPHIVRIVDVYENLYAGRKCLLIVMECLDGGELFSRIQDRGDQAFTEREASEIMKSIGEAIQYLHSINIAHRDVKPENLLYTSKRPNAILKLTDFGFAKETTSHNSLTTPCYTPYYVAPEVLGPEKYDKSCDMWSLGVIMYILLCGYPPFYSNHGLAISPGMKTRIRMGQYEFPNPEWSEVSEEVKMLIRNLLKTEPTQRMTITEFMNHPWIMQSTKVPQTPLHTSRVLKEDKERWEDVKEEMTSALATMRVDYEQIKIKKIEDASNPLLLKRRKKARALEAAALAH
Sequence of Phospholipase A2 (P04054 whole entry): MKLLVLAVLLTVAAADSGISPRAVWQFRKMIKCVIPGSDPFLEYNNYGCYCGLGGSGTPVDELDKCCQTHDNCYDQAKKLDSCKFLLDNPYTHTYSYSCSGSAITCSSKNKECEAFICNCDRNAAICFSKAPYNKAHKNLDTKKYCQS
Sequence of Dual specificity tyrosine-phosphorylation-regulated kinase 1B (Q9Y463 whole entry): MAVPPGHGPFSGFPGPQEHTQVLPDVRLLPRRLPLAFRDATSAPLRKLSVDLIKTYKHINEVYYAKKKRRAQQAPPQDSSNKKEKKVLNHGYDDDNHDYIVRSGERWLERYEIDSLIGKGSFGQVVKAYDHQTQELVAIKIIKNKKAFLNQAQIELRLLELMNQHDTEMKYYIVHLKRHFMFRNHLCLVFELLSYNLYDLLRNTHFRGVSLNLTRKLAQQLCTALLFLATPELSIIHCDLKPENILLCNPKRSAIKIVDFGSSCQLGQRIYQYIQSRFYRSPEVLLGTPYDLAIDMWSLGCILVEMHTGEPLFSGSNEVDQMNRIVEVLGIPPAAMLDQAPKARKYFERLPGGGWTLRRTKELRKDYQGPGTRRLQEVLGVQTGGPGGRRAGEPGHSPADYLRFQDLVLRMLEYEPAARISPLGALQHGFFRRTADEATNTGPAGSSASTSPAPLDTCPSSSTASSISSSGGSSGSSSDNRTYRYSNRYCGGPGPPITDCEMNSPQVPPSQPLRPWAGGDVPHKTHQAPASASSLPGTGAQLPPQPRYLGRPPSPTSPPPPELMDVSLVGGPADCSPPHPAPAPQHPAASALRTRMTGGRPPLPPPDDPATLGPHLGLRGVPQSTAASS
Sequence of 1-phosphatidylinositol 4,5-bisphosphate phosphodiesterase gamma-1 (P19174 whole entry): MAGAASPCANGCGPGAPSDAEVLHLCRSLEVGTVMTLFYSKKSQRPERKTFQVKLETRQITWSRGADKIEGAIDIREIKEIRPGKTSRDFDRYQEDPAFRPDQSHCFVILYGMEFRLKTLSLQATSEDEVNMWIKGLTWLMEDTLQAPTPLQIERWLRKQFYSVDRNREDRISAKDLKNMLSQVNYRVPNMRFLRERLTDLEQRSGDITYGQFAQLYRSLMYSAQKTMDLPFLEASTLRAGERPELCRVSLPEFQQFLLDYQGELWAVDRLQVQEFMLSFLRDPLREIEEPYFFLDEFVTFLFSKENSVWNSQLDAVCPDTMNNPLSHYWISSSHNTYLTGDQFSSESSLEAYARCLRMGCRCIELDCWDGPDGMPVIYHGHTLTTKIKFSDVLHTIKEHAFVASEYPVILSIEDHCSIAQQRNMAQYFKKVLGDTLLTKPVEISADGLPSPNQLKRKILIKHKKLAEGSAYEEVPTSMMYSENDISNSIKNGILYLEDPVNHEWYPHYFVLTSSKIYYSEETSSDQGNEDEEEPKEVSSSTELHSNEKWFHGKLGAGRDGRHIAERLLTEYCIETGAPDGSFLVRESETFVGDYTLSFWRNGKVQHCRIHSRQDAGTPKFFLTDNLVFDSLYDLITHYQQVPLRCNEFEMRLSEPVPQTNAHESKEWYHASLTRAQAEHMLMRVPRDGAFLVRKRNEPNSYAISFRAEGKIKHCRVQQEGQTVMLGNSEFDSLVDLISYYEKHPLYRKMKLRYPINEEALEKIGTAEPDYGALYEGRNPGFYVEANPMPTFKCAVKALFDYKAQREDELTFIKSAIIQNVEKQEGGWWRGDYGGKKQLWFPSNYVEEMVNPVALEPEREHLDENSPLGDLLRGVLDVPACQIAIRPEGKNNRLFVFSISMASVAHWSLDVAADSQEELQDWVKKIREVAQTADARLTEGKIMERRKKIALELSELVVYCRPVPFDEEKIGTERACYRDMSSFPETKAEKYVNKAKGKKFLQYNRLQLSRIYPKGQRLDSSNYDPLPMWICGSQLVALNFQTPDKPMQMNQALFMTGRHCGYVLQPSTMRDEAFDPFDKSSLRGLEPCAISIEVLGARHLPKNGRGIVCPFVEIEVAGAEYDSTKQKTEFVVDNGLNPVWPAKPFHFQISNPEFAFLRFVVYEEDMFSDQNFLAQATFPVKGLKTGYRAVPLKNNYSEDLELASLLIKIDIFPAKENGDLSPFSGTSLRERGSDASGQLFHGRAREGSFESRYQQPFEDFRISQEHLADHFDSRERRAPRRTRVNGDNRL
Sequence of Tyrosine-protein kinase Blk (P51451 whole entry): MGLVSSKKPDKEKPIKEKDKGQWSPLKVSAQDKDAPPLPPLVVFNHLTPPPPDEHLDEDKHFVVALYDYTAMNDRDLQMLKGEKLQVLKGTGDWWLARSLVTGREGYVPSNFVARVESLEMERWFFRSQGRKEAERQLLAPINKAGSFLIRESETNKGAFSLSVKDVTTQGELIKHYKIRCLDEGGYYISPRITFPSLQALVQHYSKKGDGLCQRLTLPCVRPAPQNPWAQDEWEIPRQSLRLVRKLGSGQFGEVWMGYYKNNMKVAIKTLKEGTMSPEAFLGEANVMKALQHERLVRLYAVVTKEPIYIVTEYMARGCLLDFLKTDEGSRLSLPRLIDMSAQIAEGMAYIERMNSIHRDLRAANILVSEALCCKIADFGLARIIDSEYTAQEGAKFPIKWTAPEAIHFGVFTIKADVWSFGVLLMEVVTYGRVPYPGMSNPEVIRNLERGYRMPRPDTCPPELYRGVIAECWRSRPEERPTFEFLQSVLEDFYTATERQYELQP
Sequence of Fibroblast growth factor receptor 3 (P22607 whole entry): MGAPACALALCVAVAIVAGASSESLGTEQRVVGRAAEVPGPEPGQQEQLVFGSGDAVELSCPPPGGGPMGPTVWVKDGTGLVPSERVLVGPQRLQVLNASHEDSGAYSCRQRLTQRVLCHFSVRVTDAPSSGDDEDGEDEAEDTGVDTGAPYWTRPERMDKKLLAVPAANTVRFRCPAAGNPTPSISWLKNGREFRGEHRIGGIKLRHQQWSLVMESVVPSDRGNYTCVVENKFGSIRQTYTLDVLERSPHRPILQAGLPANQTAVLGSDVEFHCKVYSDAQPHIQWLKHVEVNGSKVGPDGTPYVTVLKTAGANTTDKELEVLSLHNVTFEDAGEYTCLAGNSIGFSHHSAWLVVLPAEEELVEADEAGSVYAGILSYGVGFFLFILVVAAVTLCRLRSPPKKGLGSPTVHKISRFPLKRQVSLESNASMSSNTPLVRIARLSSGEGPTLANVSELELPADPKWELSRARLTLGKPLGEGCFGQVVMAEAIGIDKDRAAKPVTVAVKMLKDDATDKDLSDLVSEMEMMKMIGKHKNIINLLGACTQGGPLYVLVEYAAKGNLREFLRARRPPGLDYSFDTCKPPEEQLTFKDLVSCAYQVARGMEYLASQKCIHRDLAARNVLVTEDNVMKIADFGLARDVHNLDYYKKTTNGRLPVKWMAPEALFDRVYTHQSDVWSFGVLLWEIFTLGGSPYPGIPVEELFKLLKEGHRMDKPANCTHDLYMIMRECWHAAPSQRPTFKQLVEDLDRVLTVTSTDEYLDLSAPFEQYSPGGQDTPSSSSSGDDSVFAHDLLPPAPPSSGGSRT

Compound: O=C1C=C(NCc2ccccc2)c2ccccc2C1=O
- EC50 [1]: 2610 nM (inconclusive)
- EC50 [2]: 1840 nM (active)

Compound: O=C(O)c1[nH]c2ccccc2c1C(c1cc(Cl)cc([N+](=O)[O-])c1O)c1c(C(=O)O)[nH]c2ccccc12
- IC50 [3]: 26600 nM (inactive)
- IC50 [4]: 9040 nM (active)
- AC50 [5]: 7150 nM (active)
- IC50 [6]: 9770 nM (active)

Compound: CCOC(=O)c1cn(-c2ccc(O)cc2C)c2cc(-c3ccncc3)ccc2c1=O
- Ki [7]: > 10000 nM (inactive)
- Ki [8]: > 1580 nM (inactive)
- Ki [9]: > 7940 nM (inactive)
- Ki [10]: 501 nM (active)
- Ki [11]: > 2000 nM (inactive)
- Ki [12]: > 1580 nM (inactive)
- Ki [13]: > 3160 nM (inactive)
- Ki [14]: > 3980 nM (inactive)
- Ki [15]: > 1260 nM (inactive)

Compound: Cc1cc(=O)[nH]nc1-c1ccc(NC(=O)Nc2cc(C(F)(F)F)ccc2F)c(Cl)c1
- Ki [16]: > 3160 nM (inactive)
- Ki [17]: 158 nM (active)
- Ki [18]: > 2510 nM (inactive)
- Ki [19]: > 2510 nM (inactive)
- Ki [20]: > 2510 nM (inactive)
- Ki [21]: > 1580 nM (inactive)
